Laboratory results: patent US20020137929A1, “1 - (3-heterocyclylphenyl) isothiourea, -isourea, -guanidine and -amidine herbicidal agents” (Intellectual Property Department, BASF Aktiengesellschaft, priority 1998, published 2002)

Key:
[1] = test system: ECHORC (Watergrass (Calif.)); assay: Preemergence weed control under flooded paddy conditions; format: in vivo, Echinochloa oryzoides; conditions: rated 3-4 weeks after treatment
Procedure, shortened: (§1)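 Silt loam, seeds in top 0.5 cm; flood held 1.5-3 cm; test cpd as acetone/water 50/50 into flood water, ~0.0313-0.500 kg/ha a.i.; greenhouse 3-4 wk; visual 0-9 score vs control.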

ORYSAT (Rice, Tebonnet) = assay: Preemergence herbicidal evaluation; format: in vivo, Oryza sativa, (L.) Tebonnet; conditions: rated 4-5 weeks after treatment
Procedure, shortened: (§2)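 Greenhouse preemergence test: seed-soil mix sown on ~1 inch soil; aqueous acetone spray at equivalent of ~0.0156–0.500 kg/ha; greenhouse-held and watered; scored 0–9 visually at 4–5 weeks.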

CYPSE (Flatsedge) [2] = assay: Postemergence weed control under flooded paddy conditions; format: in vivo, Cyperus serotinus; conditions: postemergence weeds, rated 3 to 4 weeks after treatment
Procedure, shortened: (§3)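 Weeds 3 to 5 cm tall and rice seedlings at the 1.5 to 2.5 leaf stage were flooded, with water held 1.5 to 3 cm above the soil. Compounds in 50/50 v/v aqueous/acetone went into the flood water at about 0.0313 to 0.500 kg/ha. Visual 0-9 ratings versus control were made 3 to 4 weeks later.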

[3] = test system: ECHORC (Watergrass (Calif.)); assay: as above; format: in vivo, Echinochloa oryzoides; conditions: postemergence weeds, rated 3 to 4 weeks after treatment
Procedure, shortened: as §3

CASOB (Sicklepod) = assay: Postemergence herbicidal evaluation; format: in vivo, Cassia obtusifolia
Procedure, shortened: (§4)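 Each compound, dispersed in an acetone/water mix (50/50) carrying 0.5% TWEEN 20, is nozzle-sprayed at 40 psi on approximately two-week-old seedlings at about 0.0156–0.500 kg/ha. Plants are assessed 4–5 weeks afterward on a 0–9 scale relative to control; duplicate tests are averaged.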

AMBEL (Ragweed, Common) = assay: Preemergence herbicidal evaluation; format: in vivo, Ambrosia artemisifolia; conditions: rated 4-5 weeks after treatment
Procedure, shortened: as §2

CYPSE (Flatsedge) [4] = assay: Preemergence weed control under flooded paddy conditions; format: in vivo, Cyperus serotinus; conditions: rated 3-4 weeks after treatment
Procedure, shortened: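 Ratings on a 0-9 visual scale cover stand, vigor, malformation, size, chlorosis and overall appearance relative to a control, taken three to four weeks post-treatment. Application was into flood water over freshly sown silt loam at roughly 0.0313 to 0.500 kg/ha.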

GALAP (Galium) = assay: Postemergence herbicidal evaluation; format: in vivo, Galium aparine
Procedure, shortened: as §4

[5] = test system: CHEAL (Lambsquarters, Common); assay: Preemergence herbicidal evaluation; format: in vivo, Chenopodium album; conditions: rated 4-5 weeks after treatment
Procedure, shortened: as §2

[6] = test system: TRZAWR (Wheat, Winter, cv Riband); assay: Preemergence herbicidal evaluation; format: in vivo, Triticum aestivum; conditions: rated 4-5 weeks after treatment
Procedure, shortened: as §2

[7] = test system: IPOHE (Morningglory, Ivyleaf); assay: Preemergence herbicidal evaluation; format: in vivo, Ipomoea hederacea; conditions: rated 4-5 weeks after treatment
Procedure, shortened: as §2

CYPIR (Rice Flatsedge) = assay: Preemergence weed control under flooded paddy conditions; format: in vivo, Cyperus iria; conditions: rated 3-4 weeks after treatment
Procedure, shortened: as §1

ZEAMX (Corn, Field) [8] = assay: Postemergence herbicidal evaluation; format: in vivo, Zea mays
Procedure, shortened: as §4

ZEAMX (Corn, Field) [9] = assay: Preemergence herbicidal evaluation; format: in vivo, Zea mays; conditions: rated 4-5 weeks after treatment
Procedure, shortened: as §2

Q: Which “ECHORC herbicidal effect rating” value ([1]; 0.0313 kg/ha) does the source give for `CN1C(=O)C(CC(=O)O)SC1=Nc1cc(-n2c(=O)cc(C(F)(F)F)n(C)c2=O)c(F)cc1Cl` (stereo not shown) [Compound 63, 2-{{2-Chloro-5-[3,6-dihydro-3-methyl-2,6-dioxo-4-(trifluoromethyl)-1(2H)-pyrimidinyl]-4-fluoro-phenyl}imino}-3-methyl-4-oxo-5-thiazolidineacetic acid] here?
A: Its value is 0.0.

Q: And the “ECHORC herbicidal effect rating” value ([1]; 0.0625 kg/ha)?
A: The value was 0.0.

Q: And the “ECHORC herbicidal effect rating” value ([1]; 0.1250 kg/ha)?
A: Its value is 5.0.

Q: And the “ECHORC herbicidal effect rating” value ([1]; 0.2500 kg/ha)?
A: The value was 5.0.

Q: What about the “Preemergence herbicidal rating ORYSAT” value (ORYSAT (Rice, Tebonnet); rate 0.0156 kg/ha) of the same compound?
A: Its value is 0.0.

Q: And the “Preemergence herbicidal rating ORYSAT” value (ORYSAT (Rice, Tebonnet); rate 0.0313 kg/ha)?
A: The value was 0.0.

Q: And the “Preemergence herbicidal rating ORYSAT” value (ORYSAT (Rice, Tebonnet); rate 0.0625 kg/ha)?
A: Its value is 5.0.

Q: What about the “Preemergence herbicidal rating ORYSAT” value (ORYSAT (Rice, Tebonnet); rate 0.1250 kg/ha) of the same compound?
A: The value was 7.0.

Q: And the “Preemergence herbicidal rating ORYSAT” value (ORYSAT (Rice, Tebonnet); rate 0.2500 kg/ha)?
A: Its value is 7.0.

Q: What about the “Herbicidal rating CYPSE” value (CYPSE (Flatsedge) [2]; Rate 0.0313 kg/ha) of the same compound?
A: Its value is 0.0.

Q: What about the “Herbicidal rating CYPSE” value (CYPSE (Flatsedge) [2]; Rate 0.0625 kg/ha) of the same compound?
A: The value was 0.0.

Q: And the “Herbicidal rating CYPSE” value (CYPSE (Flatsedge) [2]; Rate 0.1250 kg/ha)?
A: Its value is 0.0.

Q: What about the “Herbicidal rating CYPSE” value (CYPSE (Flatsedge) [2]; Rate 0.2500 kg/ha) of the same compound?
A: The value was 0.0.

Q: And the “Herbicidal rating ECHORC” value ([3]; Rate 0.0313 kg/ha)?
A: Its value is 0.0.

Q: What about the “Herbicidal rating ECHORC” value ([3]; Rate 0.0625 kg/ha) of the same compound?
A: The value was 0.0.

Q: And the “Herbicidal rating ECHORC” value ([3]; Rate 0.1250 kg/ha)?
A: The value was 5.0.

Q: What about the “Herbicidal rating ECHORC” value ([3]; Rate 0.2500 kg/ha) of the same compound?
A: The value was 5.0.

Q: And the “Postemergence herbicidal rating CASOB” value (CASOB (Sicklepod); Rate 0.0158 kg/ha)?
A: Its value is 0.0.

Q: And the “Postemergence herbicidal rating CASOB” value (CASOB (Sicklepod); Rate 0.0315 kg/ha)?
A: The value was 3.0.

Q: What about the “Postemergence herbicidal rating CASOB” value (CASOB (Sicklepod); Rate 0.0630 kg/ha) of the same compound?
A: Its value is 5.0.

Q: What about the “Preemergence herbicidal rating AMBEL” value (AMBEL (Ragweed, Common); rate 0.0156 kg/ha) of the same compound?
A: Its value is 0.0.

Q: What about the “Preemergence herbicidal rating AMBEL” value (AMBEL (Ragweed, Common); rate 0.0313 kg/ha) of the same compound?
A: The value was 0.0.

Q: And the “Preemergence herbicidal rating AMBEL” value (AMBEL (Ragweed, Common); rate 0.0625 kg/ha)?
A: Its value is 6.0.

Q: What about the “Preemergence herbicidal rating AMBEL” value (AMBEL (Ragweed, Common); rate 0.1250 kg/ha) of the same compound?
A: Its value is 9.0.

Q: And the “Preemergence herbicidal rating AMBEL” value (AMBEL (Ragweed, Common); rate 0.2500 kg/ha)?
A: Its value is 9.0.

Q: And the “CYPSE herbicidal effect rating” value (CYPSE (Flatsedge) [4]; 0.0313 kg/ha)?
A: Its value is 0.0.

Q: What about the “CYPSE herbicidal effect rating” value (CYPSE (Flatsedge) [4]; 0.0625 kg/ha) of the same compound?
A: The value was 0.0.

Q: And the “CYPSE herbicidal effect rating” value (CYPSE (Flatsedge) [4]; 0.1250 kg/ha)?
A: The value was 0.0.

Q: What about the “CYPSE herbicidal effect rating” value (CYPSE (Flatsedge) [4]; 0.2500 kg/ha) of the same compound?
A: Its value is 0.0.

Q: What about the “Postemergence herbicidal rating GALAP” value (GALAP (Galium); Rate 0.0158 kg/ha) of the same compound?
A: Its value is 1.0.

Q: And the “Postemergence herbicidal rating GALAP” value (GALAP (Galium); Rate 0.0315 kg/ha)?
A: Its value is 6.0.

Q: And the “Postemergence herbicidal rating GALAP” value (GALAP (Galium); Rate 0.0630 kg/ha)?
A: The value was 7.0.

Q: What about the “Preemergence herbicidal rating CHEAL” value ([5]; rate 0.0313 kg/ha) of the same compound?
A: The value was 7.0.

Q: And the “Preemergence herbicidal rating CHEAL” value ([5]; rate 0.0625 kg/ha)?
A: Its value is 9.0.

Q: What about the “Preemergence herbicidal rating CHEAL” value ([5]; rate 0.1250 kg/ha) of the same compound?
A: The value was 9.0.

Q: And the “Preemergence herbicidal rating CHEAL” value ([5]; rate 0.2500 kg/ha)?
A: Its value is 9.0.

Q: What about the “Preemergence herbicidal rating TRZAWR” value ([6]; rate 0.0156 kg/ha) of the same compound?
A: Its value is 0.0.

Q: And the “Preemergence herbicidal rating TRZAWR” value ([6]; rate 0.0313 kg/ha)?
A: The value was 0.0.

Q: What about the “Preemergence herbicidal rating TRZAWR” value ([6]; rate 0.0625 kg/ha) of the same compound?
A: Its value is 1.0.

Q: What about the “Preemergence herbicidal rating TRZAWR” value ([6]; rate 0.1250 kg/ha) of the same compound?
A: The value was 6.0.

Q: And the “Preemergence herbicidal rating TRZAWR” value ([6]; rate 0.2500 kg/ha)?
A: Its value is 7.0.

Q: And the “Preemergence herbicidal rating IPOHE” value ([7]; rate 0.0156 kg/ha)?
A: The value was 0.0.

Q: What about the “Preemergence herbicidal rating IPOHE” value ([7]; rate 0.0313 kg/ha) of the same compound?
A: Its value is 1.0.

Q: What about the “Preemergence herbicidal rating IPOHE” value ([7]; rate 0.0625 kg/ha) of the same compound?
A: The value was 6.0.

Q: And the “Preemergence herbicidal rating IPOHE” value ([7]; rate 0.1250 kg/ha)?
A: Its value is 7.0.

Q: What about the “Preemergence herbicidal rating IPOHE” value ([7]; rate 0.2500 kg/ha) of the same compound?
A: Its value is 9.0.

Q: What about the “CYPIR herbicidal effect rating” value (CYPIR (Rice Flatsedge); 0.0313 kg/ha) of the same compound?
A: The value was 2.0.

Q: And the “CYPIR herbicidal effect rating” value (CYPIR (Rice Flatsedge); 0.0625 kg/ha)?
A: The value was 6.0.

Q: What about the “CYPIR herbicidal effect rating” value (CYPIR (Rice Flatsedge); 0.1250 kg/ha) of the same compound?
A: The value was 7.0.

Q: What about the “CYPIR herbicidal effect rating” value (CYPIR (Rice Flatsedge); 0.2500 kg/ha) of the same compound?
A: Its value is 7.0.

Q: What about the “Postemergence herbicidal rating ZEAMX” value (ZEAMX (Corn, Field) [8]; Rate 0.0158 kg/ha) of the same compound?
A: Its value is 7.0.

Q: What about the “Postemergence herbicidal rating ZEAMX” value (ZEAMX (Corn, Field) [8]; Rate 0.0315 kg/ha) of the same compound?
A: Its value is 7.5.

Q: What about the “Postemergence herbicidal rating ZEAMX” value (ZEAMX (Corn, Field) [8]; Rate 0.0630 kg/ha) of the same compound?
A: Its value is 7.5.

Q: What about the “Preemergence herbicidal rating ZEAMX” value (ZEAMX (Corn, Field) [9]; rate 0.0156 kg/ha) of the same compound?
A: The value was 0.0.

Q: What about the “Preemergence herbicidal rating ZEAMX” value (ZEAMX (Corn, Field) [9]; rate 0.0313 kg/ha) of the same compound?
A: The value was 1.0.

Q: And the “Preemergence herbicidal rating ZEAMX” value (ZEAMX (Corn, Field) [9]; rate 0.0625 kg/ha)?
A: The value was 2.0.

Q: What about the “Preemergence herbicidal rating ZEAMX” value (ZEAMX (Corn, Field) [9]; rate 0.1250 kg/ha) of the same compound?
A: The value was 6.0.

Q: And the “Preemergence herbicidal rating ZEAMX” value (ZEAMX (Corn, Field) [9]; rate 0.2500 kg/ha)?
A: The value was 7.0.
